This assay addresses T1, recombinant METTL3/METTL14 complex (Homo sapiens, UniProt Q86U44).
T1 construct: purchased Active Motif 311970; host or cells: Sf9 cells
The assay is described as follows: METTL3/14 Scintillation Proximity Assay (SPA), RNA methyltransferase activity. In kind it is biochemical. To be noted: 5.31 nM METTL3/14 complex, 250 nM RNA substrate, 1 μM 3H-SAM, 90 min; for compounds marked * best of the two separated forms.
T1 sequence (Q86U44 whole entry): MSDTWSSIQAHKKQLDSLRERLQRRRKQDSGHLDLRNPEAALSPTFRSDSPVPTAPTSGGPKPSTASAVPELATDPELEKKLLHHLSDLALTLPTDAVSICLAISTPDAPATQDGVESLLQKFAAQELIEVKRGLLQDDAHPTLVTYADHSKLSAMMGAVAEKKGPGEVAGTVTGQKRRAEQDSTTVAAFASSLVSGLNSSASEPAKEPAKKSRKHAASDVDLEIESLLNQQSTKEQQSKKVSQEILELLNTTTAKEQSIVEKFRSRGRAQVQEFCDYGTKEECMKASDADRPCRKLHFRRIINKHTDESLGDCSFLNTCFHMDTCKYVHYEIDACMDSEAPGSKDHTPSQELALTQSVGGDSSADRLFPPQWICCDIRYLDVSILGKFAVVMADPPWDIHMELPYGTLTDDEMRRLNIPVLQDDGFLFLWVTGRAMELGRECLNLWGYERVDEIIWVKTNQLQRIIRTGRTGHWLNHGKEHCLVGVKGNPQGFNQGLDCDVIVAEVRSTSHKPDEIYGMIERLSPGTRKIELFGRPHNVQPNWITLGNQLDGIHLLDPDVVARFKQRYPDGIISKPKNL
T1 sequence (Q9HCE5 whole entry partner): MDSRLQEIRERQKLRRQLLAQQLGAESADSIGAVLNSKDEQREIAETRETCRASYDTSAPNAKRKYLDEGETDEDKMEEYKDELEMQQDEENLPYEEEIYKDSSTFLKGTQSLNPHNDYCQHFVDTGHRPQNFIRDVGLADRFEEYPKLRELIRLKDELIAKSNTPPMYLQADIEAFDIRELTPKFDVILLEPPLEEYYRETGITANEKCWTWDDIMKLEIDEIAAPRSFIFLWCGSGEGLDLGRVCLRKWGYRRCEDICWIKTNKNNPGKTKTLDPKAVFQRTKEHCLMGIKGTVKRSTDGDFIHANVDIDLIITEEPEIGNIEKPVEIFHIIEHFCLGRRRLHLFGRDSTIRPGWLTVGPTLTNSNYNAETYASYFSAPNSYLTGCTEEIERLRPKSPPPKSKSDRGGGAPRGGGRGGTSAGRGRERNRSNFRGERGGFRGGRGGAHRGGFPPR
What is called IC50 is the midpoint of a concentration-inhibition curve. As to `O=C(Nc1cc2ccccc2c(=O)[nH]1)C1(c2ccc(N3CCC[C@@H](NCC4CCC4)C3)cn2)COC1` [Compound 302, (R)-3-(5-(3-((cyclobutylmethyl)amino)piperidin-1-yl)pyridin-2-yl)-N-(1-oxo-1,2-dihydroisoquinolin-3-yl)oxetane-3-carboxamide], the half-maximal inhibitory concentration (IC50) was no more than 50 nM. Then `CC(n1cc(-c2cncc(N(C)C(F)(F)F)c2)nn1)n1ccc(N2CCC[C@@H](NCC3CC3)C2)cc1=O` (single isomer, unassigned) [Compound 236], with no more than 50 nM; and `COc1cc(-c2cn(C(C)n3ccc(N4CCC[C@@H](NCC5CCC5)C4)cc3=O)nn2)cnc1C` (stereo partly drawn) [Compound 104, 4-((R)-3-((cyclobutylmethyl)amino)piperidin-1-yl)-1-(1-(4-(5-methoxy-6-methylpyridin-3-yl)-1H-1,2,3-triazol-1-yl)ethyl)pyridin-2(1H)-one], with 50 to 500 nM. Then `CC(C(=O)Nc1cncc(N(C)C)c1)c1ccc(N2CCC[C@@H](NCC3CCC3)C2)nn1` (stereo partly drawn) [Compound 157, 2-(6-((R)-3-((cyclobutylmethyl)amino)piperidin-1-yl)pyridazin-3-yl)-N-(5-(dimethylamino)pyridin-3-yl)propanamide], with 50 to 500 nM; and `CC(n1cc(-c2cncc(Br)c2)nn1)n1ccc(N2CCC[C@@H](NCC3CCC3)C2)cc1=O` (single isomer, unassigned) [Compound 152], with no more than 50 nM. The figure for `COc1cncc(-c2cn(C(C)n3ccc(N4CCC[C@@H](NCC5CCC5)C4)cc3=O)nn2)n1` (single isomer, unassigned) [Compound 105] is no more than 50 nM; for `COc1cncc(-c2cn(C(c3ccc(N4CCC[C@@H](NCC5CCC5)C4)nn3)C(F)(F)F)nn2)c1` (single isomer, unassigned) [Compound 064] it is no more than 50 nM; for `Cc1cncc(-c2cn(C(C)n3ccc(N4CCC[C@@H](NCC5CCC5)C4)cc3=O)nn2)c1` (mixture of isomers) [Compound 080, 4-((R)-3-((cyclobutylmethyl)amino)piperidin-1-yl)-1-(1-(4-(5-methylpyridin-3-yl)-1H-1,2,3-triazol-1-yl)ethyl)pyridin-2(1H)-one] it is no more than 50 nM.

Turning to `CC(c1ccc(N2CCC[C@@H](NCC3CCC3)C2)nn1)n1cc(-c2cc(=O)n3ccccc3n2)nn1` (stereo partly drawn) [Compound 089, 2-(1-(1-(6-((R)-3-((cyclobutylmethyl)amino)piperidin-1-yl)pyridazin-3-yl)ethyl)-1H-1,2,3-triazol-4-yl)-4H-pyrido[1,2-a]pyrimidin-4-one], the IC50 is no more than 50 nM. For the compound `O=c1[nH]c(-c2cn(Cc3ccc(N4CCC[C@@H](NCC5CCC5)C4)nn3)nn2)nc2ccccc12` [Compound 029, (R)-2-(1-((6-(3-((cyclobutylmethyl)amino)piperidin-1-yl)pyridazin-3-yl)methyl)-1H-1,2,3-triazol-4-yl)quinazolin-4(3H)-one], the IC50 was 50 to 500 nM. The figure for `CNc1cncc(-c2cn(C(C)n3ccc(N4CCC[C@@H](NCC5CCC5)C4)cc3=O)nn2)n1` (stereo partly drawn) [Compound 121, 4-((R)-3-((cyclobutylmethyl)amino)piperidin-1-yl)-1-(1-(4-(6-(methylamino)pyrazin-2-yl)-1H-1,2,3-triazol-1-yl)ethyl)pyridin-2(1H)-one] is no more than 50 nM. Consider `COc1cncc(C(=O)NCc2ccc(N3CCC[C@@H](NCC4CCC4)C3)nn2)c1` [Compound 004, (R)-N-((6-(3-((cyclobutylmethyl)amino)piperidin-1-yl)pyridazin-3-yl)methyl)-5-methoxynicotinamide], for which the IC50 lay within 500 to 3500 nM. Then `COc1cncc(-c2cn(Cn3ncc(N4CCC[C@@H](NCC5CCC5)C4)cc3=O)nn2)c1` [Compound 062, (R)-5-(3-((cyclobutylmethyl)amino)piperidin-1-yl)-2-((4-(5-methoxypyridin-3-yl)-1H-1,2,3-triazol-1-yl)methyl)pyridazin-3(2H)-one], with no more than 50 nM; and `Cc1cncc(-c2cn(C(C)n3ccc(N4CCC[C@@H](NCC5CC5)C4)cc3=O)nn2)n1` (single isomer, unassigned) [Compound 255], with 50 to 500 nM; and `CNc1cncc(-c2cn(C(C)n3ccc(N4CCC[C@@H](NCC5CCC5)C4)cc3=O)nn2)c1` (mixture of isomers) [Compound 096, 4-((R)-3-((cyclobutylmethyl)amino)piperidin-1-yl)-1-(1-(4-(5-(methylamino)pyridin-3-yl)-1H-1,2,3-triazol-1-yl)ethyl)pyridin-2(1H)-one], with no more than 50 nM. The figure for `COc1cncc(-n2cc(C(C)n3ccc(N4CCC[C@@H](NCC5CCC5)C4)cc3=O)nn2)c1` (mixture of isomers) [Compound 132, 4-((R)-3-((cyclobutylmethyl)amino)piperidin-1-yl)-1-(1-(1-(5-methoxypyridin-3-yl)-1H-1,2,3-triazol-4-yl)ethyl)pyridin-2(1H)-one] is no more than 50 nM; for `CC(C(=O)Nc1cncc(N2CCCC2)c1)c1ccc(N2CCC[C@@H](NCC3CC3)C2)nn1` (stereo partly drawn) [Compound 251, 2-(6-((R)-3-((cyclopropylmethyl)amino)piperidin-1-Yl)pyridazin-3-yl)-N-(5-(pyrrolidin-1-yl)pyridin-3-yl)propanamide] it is no more than 50 nM; for `O=C(Cc1ccc(N2CCC[C@@H](NCC3CCC3)C2)cn1)Nc1cncc(N2CCCC2)c1` [Compound 271, (R)-2-(5-(3-((cyclobutylmethyl)amino)piperidin-1-yl)pyridin-2-yl)-N-(5-(pyrrolidin-1-yl)pyridin-3-yl)acetamide] it is no more than 50 nM. The figure for `O=C(NCc1ccc(N2CCC[C@@H](NCC3CCC3)C2)nc1)c1cc(=O)n2ccccc2n1` [Compound 061, (R)-N-((6-(3-((cyclobutylmethyl)amino)piperidin-1-yl)pyridin-3-yl)methyl)-4-oxo-4H-pyrido[1,2-a]pyrimidine-2-carboxamide] is no more than 50 nM. On to `CNc1ccn2c(=O)cc(C(=O)NC(C)c3ccc(N4CCC[C@@H](NCC5CCC5)C4)nn3)nc2c1` (mixture of isomers) [Compound 091, N-(1-(6-((R)-3-((cyclobutylmethyl)amino)piperidin-1-yl)pyridazin-3-yl)ethyl)-8-(methylamino)-4-oxo-4H-pyrido[1,2-a]pyrimidine-2-carboxamide], for which the IC50 was no more than 50 nM. For `N#Cc1cncc(-c2cn(Cc3ccc(N4CCC[C@@H](NCC5CCC5)C4)nn3)nn2)c1` [Compound 021, (R)-5-(1-((6-(3-((cyclobutylmethyl)amino)piperidin-1-yl)pyridazin-3-yl)methyl)-1H-1,2,3-triazol-4-yl)nicotinonitrile], the IC50 lay in the range of 50 to 500 nM.

As to `COc1cc(-c2cn(Cc3ccc(N4CCC[C@@H](NC5CCOC5)C4)nn3)nn2)c2cn[nH]c2c1` (single isomer, unassigned) [Compound 033], the IC50 is no more than 50 nM. Turning to `COc1cncc(-c2cn(C(C)c3ccc(N4CCC[C@@H](NCC5CC5)C4)cn3)nn2)n1` (stereo partly drawn) [Compound 261, (3R)—N-(cyclopropylmethyl)-1-(6-(1-(4-(6-methoxypyrazin-2-yl)-1H-1,2,3-triazol-1-yl)ethyl)pyridin-3-yl)piperidin-3-amine], the IC50 is no more than 50 nM. Then `COc1cncc(-c2nnn(Cc3ccc(N4CCC[C@@H](NCC5CCC5)C4)cc3)n2)c1` [Compound 145, (R)-N-(cyclobutylmethyl)-1-(4-((5-(5-methoxypyridin-3-yl)-2H-tetrazol-2-yl)methyl)phenyl)piperidin-3-amine], with 50 to 500 nM; and `CC(C(=O)Nc1cncc(N2CCCC2)n1)c1ccc(N2CCC[C@@H](NCC3CCC3)C2)cc1` (single isomer, unassigned) [Compound 294], with no more than 50 nM; and `COc1cc(-c2ncc(C(C)c3ccc(N4CCC[C@@H](NCC5CCC5)C4)cn3)s2)c2cn[nH]c2c1` (single isomer, unassigned) [Compound 167], with no more than 50 nM. For the compound `COc1cc(-c2cn(Cc3ncc(N4CCCC(NCC5CCC5)C4)s3)nn2)c2cn[nH]c2c1` (stereo not drawn) [Compound 049, N-(cyclobutylmethyl)-1-(2-((4-(6-methoxy-1H-indazol-4-yl)-1H-1,2,3-triazol-1-yl)methyl)thiazol-5-yl)piperidin-3-amine], the IC50 is no more than 50 nM. Then `COc1cncc(-c2cn(Cc3ccc(N4CCC(F)(F)C(NCC5CCC5)C4)nn3)nn2)c1` (stereo not drawn) [Compound 059, N-(cyclobutylmethyl)-4,4-difluoro-1-(6-((4-(5-methoxypyridin-3-yl)-1H-1,2,3-triazol-1-yl)methyl)pyridazin-3-yl)piperidin-3-amine], with 50 to 500 nM. The figure for `O=C(NCc1ccc(N2CCCC(N3CCC4(CC3)CC4)C2)nn1)c1cc(=O)n2ccccc2n1` (stereo not drawn) [Compound 014, N-((6-(3-(6-azaspiro[2.5]octan-6-yl)piperidin-1-yl)pyridazin-3-yl)methyl)-4-oxo-4H-pyrido[1,2-a]pyrimidine-2-carboxamide] is 50 to 500 nM; for `C=C(c1ccc(N2CCC[C@@H](NCC3CCC3)C2)cc1)n1cc(-c2cncc(N(C)C)c2)nn1` [Compound 155, (R)-5-(1-(1-(4-(3-((cyclobutylmethyl)amino)piperidin-1-yl)phenyl)vinyl)-1H-1,2,3-triazol-4-yl)-N,N-dimethylpyridin-3-amine] it is no more than 50 nM; for `CC(c1cnn(-c2cc(N(C)C)cnn2)c1)n1ccc(N2CCC[C@@H](NCC3CC3)C2)cc1=O` (mixture of isomers) [Compound 224, 4-((R)-3-((cyclopropylmethyl)amino)piperidin-1-yl)-1-(1-(1-(5-(dimethylamino)pyridazin-3-yl)-1H-pyrazol-4-yl)ethyl)pyridin-2(1H)-one] it is no more than 50 nM. Then `COc1cncc(-c2cn(C(C)n3ccc(N4CCC[C@@H](NCC5CCC5)C4)cc3=O)nn2)c1C` (stereo partly drawn) [Compound 108, 4-((R)-3-((cyclobutylmethyl)amino)piperidin-1-yl)-1-(1-(4-(5-methoxy-4-methylpyridin-3-yl)-1H-1,2,3-triazol-1-yl)ethyl)pyridin-2(1H)-one], with no more than 50 nM; and `c1cc(N2CCC[C@@H](NCC3CCC3)C2)nnc1Cn1cc(-c2csc3cncn23)nn1` [Compound 034, (R)-N-(cyclobutylmethyl)-1-(6-((4-(imidazo[5,1-b]thiazol-3-yl)-1H-1,2,3-triazol-1-yl)methyl)pyridazin-3-yl)piperidin-3-amine], with no more than 50 nM.

The record behind these values is patent US20250002475A1 (EPICS THERAPEUTICS, priority 2023, published 2025).
